Assay results taken from patent publication US20170224679A1, “Use of CXCR2 Antagonists For The Prevention and/or Treatment of Chemotherapy Induced Peripheral Neuropathy (CIPN)” (GlaxoSmithKline Intellectual Property Development Limited, priority 2014, published 2017).

Legend:
[1] = test system: Caco-2 cell line; assay: Colorectal cancer cell line proliferation assay, Caco-2; type: cell-based; details: Caco-2, compound alone 8.5 μM, non-significant
Protocol: Cell proliferation assay: Cells were seeded in 96-well plates (Costar) at different cell densities: HCT116, 500 cells per well; Caco-2, 1000 cells per well. Total volume of the medium was 90 μl per well. Cells were incubated for 24 hours at 37° C. and 5% CO2 incubator.
The cell proliferation rate was measured by adding 100 μl of CellTiter-Glo™ (Promega) according to the manufacturer's instructions. After 10 minutes of incubation, the cell lysates were transferred into OptiPlate-384 well, the luminescence was recorded by BioTek Synergy™ 4 Hybrid Microplate Reader with Gen5 software. All data points were generated in five replicates. Three independent experiments were performed.
Data Analysis: pIC50 values were calculated by software GraphPad Prism 5 using sigmoidal concentration-response (variable slope). All data were presented as the mean±standard error of the mean determined from three independent experiments.

[2] = test system: Sprague-Dawley rats; assay: CXCR2 antagonist effect on oxaliplatin-induced acute sensory injury rat (PWT, von Frey); type: in vivo
Protocol: If the animal withdrew or lifted the paw upon stimulation, then a hair with force immediately lower than that tested was used. If no response was observed, then a hair with force immediately higher was tested.

[3] = molecular target: T1, CXCR2 receptor (Homo sapiens, UniProt P25025); assay: Calcium mobilization assay (FLIPR, IL-8 induced); type: cell-based; set-up: expressed in transfected cells; host or cells: CHO-K1 cells
T1 sequence (P25025 1-360): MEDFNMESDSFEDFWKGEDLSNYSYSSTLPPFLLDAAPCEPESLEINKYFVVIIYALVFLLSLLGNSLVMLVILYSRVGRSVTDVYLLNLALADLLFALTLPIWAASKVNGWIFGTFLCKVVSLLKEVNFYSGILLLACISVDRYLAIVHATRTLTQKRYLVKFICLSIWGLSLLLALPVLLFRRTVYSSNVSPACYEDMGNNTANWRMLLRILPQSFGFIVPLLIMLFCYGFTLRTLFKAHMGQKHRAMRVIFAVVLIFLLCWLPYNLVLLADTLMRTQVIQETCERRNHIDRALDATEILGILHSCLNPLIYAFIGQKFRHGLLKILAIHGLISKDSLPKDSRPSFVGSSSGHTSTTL
Protocol: CHO-K1 cells, stably expressing CXCR2 and Gαl6, were grown to 80% confluency in DMEM/F12 (HAM's) 1:1, w/10% FCS (heat inactivated), w/2 mM L-glutamine, w/0.4 mg/ml G418 while maintained at 37° C. in a 5% CO2 incubator. Twenty four hours prior to conducting the assay, the cells were harvested and plated (40,000 cells per well) in a 96 well, black wall, clear bottom plate (Packard View) and returned to the CO2 incubator. On the day of the assay, compounds were serially diluted in 100% DMSO to 300× the desired assay concentration. Growth media was aspirated from the cells and replaced with 100 μL of load media (EMEM with Earl's salts w/LGlutamine, 0.1% BSA, (Bovunlinar Cohen Fraction V from Seriologicals Corp.), 4 uM Fluo-4-acetoxymethyl ester fluorescent indicator dye (Fluo-4 AM, from Molecular Probes) and 2.5 mM probenecid) and incubated for 1 hour at 37° C. in a CO2 incubator. Load media was aspirated and replaced with 100 μL of EMEM with Earl's salts w/L-Glutamine, 0.1% gelatin and 2.5 mM probenecid and incubated for an additional 10 min. Serially diluted compound (3 μL) in DMSO at 300× was transferred to a 96 well plate containing 297 micro liters of KRH (120 mM NaCl, 4.6 mM KCl, 1.03 mM KH2PO4, 25 mM NaHCO3, 1.0 mM CaCl2, 1.1 mM MgCl2, 11 mM glucose, 20 mM HEPES (pH 7.4)) w/2.5 mM probenecid and 0.1% gelatin (compound now at 3×). […]

[4] = molecular target: T1, CXCR2 receptor; assay: GPCR Arrestin Assay (DiscoveRX PathHunter), CXCR2; type: cell-based; set-up: host or cells: PathHunter CHO cell lines
Protocol: (§1) Certain compounds of the invention were also tested by DiscoveRX Corporation (42501 Albrae Street, Fremont, Calif. 94538, United States) in their GPCR Arrestin Assay to determine their activity against a panel of receptors including CXCR2 and CXCR1. PathHunter CHO cell lines were expanded from freezer stocks according to standard procedures. Cells were seeded in a total volume of 20 μL into white walled, 384-well microplates and incubated at 37° C. for the appropriate time prior to testing. The cells were pre-incubated with antagonist followed by agonist challenge at the EC80 concentration. Intermediate dilution of sample stocks was performed to generate 5× sample in assay buffer. 5 μL of 5× sample was added to cells and incubated at 37° C. or room temperature for 30 minutes. […] Assay signal was generated through a single addition of 12.5 or 15 μL (50% v/v) of PathHunter Detection reagent cocktail, followed by one hour incubation at room temperature. Microplates were read following signal generation with a PerkinElmer Envision™ instrument for chemiluminescent signal detection. Compound activity was analyzed using CBIS data analysis suite (ChemInnovation, Calif.).

[5] = molecular target: T2, CXCR1 receptor (Homo sapiens, UniProt P25024); assay: GPCR Arrestin Assay (DiscoveRX PathHunter), CXCR1; type: cell-based; set-up: host or cells: PathHunter CHO cell lines; details: PathHunter CHO cells, agonist at EC80; read-out: pIC50 against the CXCR1 receptor (converted)
T2 sequence (P25024 1-350): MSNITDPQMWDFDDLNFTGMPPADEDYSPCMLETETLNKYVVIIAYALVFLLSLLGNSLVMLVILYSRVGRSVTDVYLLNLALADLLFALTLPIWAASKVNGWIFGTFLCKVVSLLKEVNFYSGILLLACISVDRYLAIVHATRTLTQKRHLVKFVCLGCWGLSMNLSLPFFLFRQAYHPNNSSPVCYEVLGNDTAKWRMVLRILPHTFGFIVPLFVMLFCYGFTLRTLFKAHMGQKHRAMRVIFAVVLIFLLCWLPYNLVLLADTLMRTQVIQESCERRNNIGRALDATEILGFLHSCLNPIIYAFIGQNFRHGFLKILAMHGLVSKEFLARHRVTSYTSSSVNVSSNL
Protocol: as §1

O=C(Nc1ccc(Cl)c(S(=O)(=O)N2CCNCC2)c1O)Nc1cccc(F)c1Cl [Compound of Formula (A), 1-(4-chloro-2-hydroxy-3-(piperazin-1-ylsulfonyl)phenyl)-3-(2-chloro-3-fluorophenyl)urea]
decrease of basal proliferation [1]: 2.7±2.1%
oxaliplatin induced mechanical allodynia (PWT) vs oxaliplatin and vehicle group ([2]; Day 3, 5, 20 and 50 mg/kg p.o. b.i.d. from Day -1): reduced the mechanical allodynia
oxaliplatin induced mechanical allodynia (PWT) vs oxaliplatin and vehicle group ([2]; Day 7, 20 and 50 mg/kg p.o. b.i.d. only): robust reduction of the mechanical allodynia
Kb [3]: 0.00398 µM

CN1CCC(C)(S(=O)(=O)c2c(Cl)ccc(NC(=O)Nc3cccc(F)c3Cl)c2O)CC1 [Compound of Formula (D), 1-(4-chloro-3-((1,4-dimethylpiperidin-4-yl)sulfonyl)-2-hydroxyphenyl)-3-(2-chloro-3-fluorophenyl)urea]
selectivity for CXCR2 over CXCR1 ([4]; GPCR Arrestin Assay e)): 29 fold
IC50 ([4]; PathHunter CHO cells, agonist at EC80, read-out: pIC50 against the CXCR2 receptor (converted)): 0.1 µM
IC50 [5]: 2.51 µM
